This passage reports melting point results from a melting point compilation (Tetko et al.; mined from patent text by program, amines drawn as free bases though some values may be those of a salt).

The compound `CC(=O)N1CCc2cc(C(=O)CCCCCBr)ccc21` yielded a melting point of 110 to 111 °C.
With `CCOP(=O)(/C=C/c1cn(-c2ccccc2)nc1OCc1ccc(OCc2nc(-c3ccco3)oc2C)c(C(=O)O)c1)OCC`, the melting point lay in the range of 169 to 170 °C.
Then `Cc1c(NC(=O)CC(C)(C)C)cc2c(c1C)OC(C)(C)C2c1ccc(Br)cc1` (stereo not drawn), with 171 to 172 °C; and `CCOC(=O)c1sc(SC)c2c1CCc1sc(C)nc1-2`, with 143 to 144 °C.
Then `Cc1ccnc2c1C(=O)CC(c1cccs1)C2` (stereo not drawn), with 105 to 107 °C; and `CCOC(=O)CCC(=O)[C@H](Cc1ccccc1)NC(=O)c1ccccc1`, with 112 to 114 °C.
Take `CC(C)(C)c1ccc2c(c1O)C(=O)c1c(O)cccc1C2`: the melting point is 126 to 127 °C.
Then `CC1C(c2ccccc2)OC(C)(C)N1C(=O)C(Cl)Cl` (stereo not drawn), with 126 °C; and `O=C(CN1C(=O)C2(COc3ccc(Br)cc32)c2ccccc21)Nc1ccccc1F` (stereo not drawn), with 100 to 103 °C.
The result for `FC(F)(F)c1ccc(C=CC(C=Cc2ccc(C(F)(F)F)cc2)=NNC2=NCCCN2)cc1` reads 196 to 197 °C; that for `COc1ccc(CNc2cc(Cl)ncc2C=O)cc1Cl`, 146 to 148 °C; that for `CC1(C)CCc2ccccc2C1n1cncc1C1SCCS1` (stereo not drawn), 109 °C.
Then `OC(CN1CCNC1=S)c1cccc(C(F)(F)F)c1` (stereo not drawn), with 117 °C; and `COC(=O)Cc1ccc(OCCNC(=O)C2Cc3ccccc3N2S(=O)(=O)c2ccc(-c3ccc(C)cc3)c(C(F)(F)F)c2)cc1` (stereo not drawn), with 60 °C; and `CCCCCCCS(=O)(=O)c1ccc(N)cc1`, with 91 to 92 °C.
`CC(=O)OCC1SC(Oc2cc(C)cc(O)c2C(C)=O)C(OC(C)=O)C(OC(C)=O)C1OC(C)=O` (stereo not drawn) displayed a melting point of 162 to 164 °C.
The compound `CCOc1cc(OCCCc2cn(-c3ccc(C(F)(F)F)cn3)nc2C)ccc1CCC(=O)O` came in with a melting point of 129 to 130 °C.
Then `COC(=O)c1ccc(CBr)c(OC)c1`, with 87 to 90 °C.
In turn, `COc1ccc([C@@H]2Sc3ccccc3N(CCN(C)C)C(=O)[C@@H]2OC(=O)c2ccc([N+](=O)[O-])cc2Cl)cc1` had a melting point of 153 to 156 °C.
The result for `CCn1nnn(-c2cc(O)c(Cl)cc2Cl)c1=O` reads 149 to 150 °C; that for `Cc1ccc(C)c(OCCCC(C)(C)C(=O)Nc2ccc3c(c2)OCO3)c1`, 89 to 90 °C.
Then `Cc1cc(-c2cc(C(C)(C)C)[nH]n2)c(F)cc1Cl`, with 138 °C; and `Cc1ccncc1C(O)c1ccc2cc(CO)ccc2c1` (stereo not drawn), with 151 to 153 °C; and `Cc1nn(C(C)(C)C)c(N)c1C(N)=O`, with 195 to 196 °C.
The result for `COC(=O)c1ccc(Cl)c(CN2CCN(C)C2=O)c1Cl` reads 59 °C; that for `O=C(O)C1=Cc2cc(Cl)cc(CO)c2OC1C(F)(F)F` (stereo not drawn), 175 to 179 °C; that for `CS(=O)(=O)c1ccc(-c2cnc(N(Cc3ccc(C(F)(F)P(=O)(O)O)c(Cl)c3)c3ccc(Cl)c(Cl)c3)o2)cc1`, 141 to 143 °C.
Turning to `O=c1c(CCCc2ccco2)cc2cccnc2n1-c1cccc([N+](=O)[O-])c1`, the melting point fell in the range of 166 to 167 °C.
The result for `C=CC(CC(O)C(CC(C)C)NC(=O)C(Cc1c[nH]cn1)NC(=O)C(Cc1ccccc1)NC(=O)OC(C)(C)C)C(C)C` (stereo not drawn) reads 82 °C; that for `CSc1ccc(OC(=O)OCc2ccccc2Cl)cc1`, 49.5 to 50 °C.
The result for `COCOc1ccc(N2C(=O)[C@@H](N=[N+]=[N-])[C@H]2C=Cc2ccccc2)cc1` (relative stereo) reads 111 to 112 °C; that for `O=C1C2=CSCCN2C(=O)N1c1ccc(Cl)cc1`, 155 to 158 °C.
The result for `CC(=O)c1cc(CN2CCN(CCO)CC2)ccc1O` reads 72 to 75 °C; that for `Cc1cnc(CSc2nc3cc(OC(F)(F)C(F)F)ccc3[nH]2)c(Cl)c1N1CCCCC1`, 170 to 171 °C.
With `COC(=O)c1ccc2ccc(C(C)=O)cc2c1`, the melting point lay within 103 to 105 °C.
The result for `Nc1ccn2nc(-c3cccnc3)nc2c1` reads 228 to 233 °C; that for `COc1cc2c(cc1OC)C(c1c(Cl)cccc1Cl)NC(=O)C2` (stereo not drawn), 228 to 229 °C; that for `CSc1ccc(C=O)c(Cl)c1`, 76 to 77 °C.
Then `COc1ccc(/C=C/C(=O)N2CCc3ccccc32)cc1OC`, with 118 to 120 °C.
On to `CC(C)[C@H](OCc1c(F)cccc1F)[C@H]1[C@H]([N+](=O)[O-])[C@H](c2ccccc2)N[C@@H]1C(=O)NCC(=O)O`, for which the melting point is 80 to 81 °C.
Then `CC(=O)c1c[nH]c(-c2ccncc2)c1C`, with 210 to 211 °C; and `COC(=O)CCC(=O)Nc1cccc(COc2ccc(C(C)=O)c(O)c2)c1`, with 121 to 123 °C.
Consider `C[C@@H]1C[C@@H](O)CC(C)(C)C1=O`, for which the melting point is 49 to 50 °C.
As for `CNC[C@H]1CC[C@H](C(=O)O)CC1`, the melting point came to 261 °C.
The result for `CN1C(=O)C(Cc2ccccc2)(c2ccccc2OCCCCBr)c2ccccc21` (stereo not drawn) reads 174 to 175 °C; that for `CCCCNC1NC(=O)N(c2ccc(O)cc2)C(=O)N1`, 263 to 265 °C; that for `COc1ccc2[nH]c(C(=O)c3ccc(Cl)cc3)c(CC(=O)O)c2c1`, 200 to 204 °C.
On to `CC(C(=O)O)c1ccc2c(c1)C(=O)Cc1cc(F)ccc1S2` (stereo not drawn), for which the melting point fell in the range of 213 to 214 °C.
Turning to `CCOc1nc(N)n2nc(-c3ccco3)nc2n1`, the melting point was in the range of 211 to 213 °C.
Take `OP(O)C(NC(c1ccccc1)c1ccccc1)c1ccco1` (stereo not drawn): the melting point came out at 193 °C.
The result for `CCC(=NOCC=Cc1ccc(Br)cc1)C1=C(O)CC(C2CCCSC2)CC1=O` (stereo not drawn) reads 97 to 99 °C.
Consider `CCOCc1nc2c(N)nc3cc(N4CCOCC4)ccc3c2n1CCCOC(C)C`, for which the melting point was in the range of 161 to 162 °C.
Then `O=C(NC1CCCC1)NS(=O)(=O)c1cccc(Cl)c1Cl`, with 202 to 207 °C.
Then `CCN(CC)c1cccc(CCC(N)=O)c1`, with 59 °C; and `O=c1c(Cl)c(Cl)cnn1-c1ccc([N+](=O)[O-])cc1`, with 221 °C.
The result for `Cc1nc(N(C)c2ccc(Cl)cc2)sc1-c1ccnc(Nc2ccc(N3CCOCC3)cc2)n1` reads 245 to 246 °C.
For the compound `CCc1c(C)nc(-c2ccccc2)nc1NCC(=O)N(C)c1ccc(Cl)cc1`, the melting point is 142 to 143 °C.
Then `CC1CN(C(=O)NC(CS)Cc2ccccc2)CC(C)O1` (single isomer, unassigned; (+)), with 120 to 122 °C; and `CC(C)c1cn(C(C)(C)C(=O)N(C)C)nc1-c1ccccc1`, with 80.5 to 82.5 °C.
The result for `CCN(CC)c1ccc(Nc2ncc3ccc(=O)n(CC)c3n2)cc1` reads 108 to 109 °C; that for `CSc1nn(-c2c(Cl)cc(C(F)(F)F)cc2Cl)c(N)c1C(=O)c1cc(C)ccc1C`, 130 to 132 °C; that for `CCCCC(CC(=O)Nc1cc(C(N)=O)ccc1C(C)(C)C)c1ccc(OCCCOC)cc1OC` (stereo not drawn), 157 to 162 °C.
The result for `COc1ccc(NC(=O)NCc2ccc3c(c2)CN(C2CCC(=O)NC2=O)C3=O)cc1` (stereo not drawn) reads 255 to 257 °C; that for `CC(C)c1nc(COC(N)=O)n(Cc2ccccn2)c1Sc1cc(Cl)cc(Cl)c1`, 127 to 130 °C; that for `COC(=O)C=CC1C(C(=O)OC(C#N)c2cccc(Oc3ccccc3)c2)C1(C)C` (stereo not drawn), 98 °C.
Consider `O=[N+]([O-])c1ccc(NN=Cc2cnccn2)nc1`, for which the melting point was 271 to 272 °C.
The result for `NS(=O)(=O)c1ccc(-c2cnn(CC(F)(F)F)c(=O)c2-c2ccc(Cl)cc2)cc1` reads 154 to 156 °C; that for `CCCCCCCC(=O)Nc1cccc(-c2cc(=O)cc(C(=O)O)o2)c1`, 242 to 247 °C.
Compound `COC(=O)c1cc(OC)c(OC)c([N+](=O)[O-])c1` showed a melting point of 75 to 76 °C.
On to `O=C(CCCN1CCC(Cc2ccccc2)CC1)c1ccc2c(c1)C(=O)c1cc(C(=O)CCCN3CCC(Cc4ccccc4)CC3)ccc1-2`, for which the melting point fell in the range of 141 to 143 °C.
The result for `Cc1cccc(C2(O)CCN(CC3CCc4ccccc4C3=O)CC2)c1` (stereo not drawn) reads 157 to 159 °C; that for `O=C(O)CCc1ccc(OCCN2CCCC2=O)cc1Oc1ncc(C(F)(F)F)cc1Cl`, 145 to 146 °C.
On to `COC(=O)Cc1c(C(=O)OC)ccn1CCO`, for which the melting point is 52 to 54 °C.
Regarding `CN1CCCCCC1=NC(=O)Nc1cccc(Cl)c1`, the melting point is 115 to 118 °C.
Then `C[C@H](NC(=O)OCc1ccccc1)C(=O)c1ccc(OCc2ccccc2)cc1`, with 89 to 91 °C.
`OC(CNC1CCc2ccccc2C1)COc1cccc(C(F)(F)F)c1` (stereo not drawn): the melting point is 84 to 89 °C.
The result for `CCC1(CCCCCBr)C(=O)Nc2ccc(C)cc21` (stereo not drawn) reads 72 to 73 °C.
Then `CCc1cn(CC)cc(-c2cccc(C(F)(F)F)c2)c1=O`, with 67 to 70 °C; and `Cn1cnc2c3ncc(Cl)cc3ccc21`, with 188 to 189 °C.
Then `COc1cc2nc(S(=O)(=O)Nc3c(Cl)cccc3Cl)nn2c(OC)n1`, with 211 to 212 °C; and `CC1(C)OC(=O)Nc2ccc(-c3cccc(F)c3)cc21`, with 181 to 182 °C; and `Cc1cc(C2=c3ccc(=C4C(=O)c5ccccc5C4=O)cc3OC2=O)cc(C)c1N`, with more than 250 °C.
Regarding `N#Cc1cccc(-n2c(=O)oc3ccc(-c4ccc(F)cc4F)cc3c2=O)c1`, the melting point fell in the range of 209 to 210 °C.
For the compound `CCCC(=O)Nc1n[nH]c2c([N+](=O)[O-])c(Br)ccc12`, the melting point came out at 248 °C.
The result for `O=S(=O)(Cl)c1cc(S(=O)(=O)Cl)c2cc(S(=O)(=O)Cl)cc(S(=O)(=O)Cl)c2c1` reads 263 to 270 °C; that for `COC(=O)/C=C/c1cc(-c2ccc(C)cc2)cs1`, 116 to 118 °C; that for `Cc1c([N+](=O)[O-])cnc(Oc2ccc(Cl)c(C(F)(F)F)c2)c1Br`, 73 to 74 °C.
The compound `COc1c([N+](=O)[O-])c([N+](=O)[O-])c(OC)c2[nH]c(C(F)(F)F)nc12` gave a melting point of 208 to 210 °C.
